Data from article PMC4311633, “Effects of RAMEA-complexed polyunsaturated fatty acids on the response of human dendritic cells to inflammatory signals” (Beilstein Journal of Organic Chemistry, 2014).

Tests used:
[1] = system: CD1a cell surface protein in moDC; assay: CD1a cell surface expression in moDC by flow cytometry; format: cell-based, human; settings: 20 µM/mL, resting, LPS- or Poly(I:C)-activated moDC; for Expression of CD1a protein on the surface of moDC: RAMEA-complexed PUFA compared with DMSO/ethanol form
Procedure: (§1) Peripheral blood mononuclear cells (PBMC) were separated from buffy coats by Ficoll gradient centrifugation (Amersham Biosciences, Uppsala, Sweden). Monocytes were isolated by positive selection using magnetic cell separation with anti-CD14-conjugated microbeads (Miltenyi Biotech, Bergisch Gladbach, Germany). […] The purified cells were cultured at a density of 10^6 cells/mL in serum free AIMV medium supplemented with 80 ng/mL granulocyte-macrophage colony stimulating factor (GM-CSF) purchased from Gentaur and 50 ng/mL IL-4 from Peprotech.
(§2) On day 0 and day 2 of the in vitro moDC differentiation process the cultures were supplemented with GM-CSF and IL-4 and were treated with 20 µM/mL n−3 PUFAs. On day 5 the fully differentiated cells were activated by 500 ng/mL bacterial lipopolysaccharide (LPS) (Sigma Aldrich) or by 500 ng/mL Poly(I:C) (InvivoGen, San Diego, CA, USA) or were left untreated. The negative controls were treated by DMSO or by 20 µM/mL RAMEA. The positive controls were stimulated by LPS or Poly(I:C) in the absence of PUFAs.
Phenotyping of moDC was performed by flow cytometry using anti-CD83-PE and anti-CD1a-FITC specific antibodes from BioLegend at the protein level (San Diego, CA, USA). Fluorescence intensities were measured with FACSCalibur (BD Biosciences). Data analysis was performed with the FlowJo software (Tree Star, Ashland, OR, USA).

[2] = system: GPR120 receptor expression in moDC; assay: GPR120 expression in moDC by Q-PCR; format: cell-based, human; settings: 20 µM/mL; LPS-activated moDC; Q-PCR normalized to cyclophilin
Procedure: as §1, §2
GPR120 expression levels were measured by real-time quantitative PCR (Q-PCR). […] Q-PCR was performed using the ABI StepOne Real Time PCR System (Applied Biosystems) and cycle threshold values were determined by using the StepOne v2.1 Software (Applied Biosystems).

[3] = Solubility in 20% randomly methylated CD solutions and complexation efficiency, ALA; format: physicochemical; settings: calculated from solubility data in 20% CD solution, 24 h, rt
Procedure: (§3) The complexation efficiency calculated from the solubility data characterize the affinity of the various methylated CDs toward the lipids studied (Table 1). The complex association constants were not calculated because the intrinsic solubility in water is so low that it cannot be determined with a precision sufficient for the calculations.
(§4) The solubility of fatty acids in CD solutions was determined by adding PUFAs to the aqueous solutions at 20% RAMEA, RAMEB or RAMEG, respectively, stirring for 24 h at rt and then analyzed the filtered saturated solutions by HPLC using Hypersil ODS column (4 × 125 mm, particle size 5 μm) with guard column, mobile phase: acetonitrile/water 75:25 with 0.15% concentrated phosphoric acid, 2.0 mL/min flow rate, at 40 °C and UV detection at 210 nm.

[4] = Solubility in 20% randomly methylated CD solutions and complexation efficiency, EPA; format: physicochemical; settings: calculated from solubility data in 20% CD solution, 24 h, rt
Procedure: as §3, §4

[5] = Solubility in 20% randomly methylated CD solutions and complexation efficiency, DHA; format: physicochemical; settings: calculated from solubility data in 20% CD solution, 24 h, rt
Procedure: as §3, §4

[6] = Solubility in 20% randomly methylated CD solutions and complexation efficiency, cholesterol; format: physicochemical; settings: for Solubilization of cholesterol: aqueous solution of 20% CD vs distilled water; for Complexation efficiency for Cholesterol: calculated from solubility data in 20% CD solution, 24 h, rt
[7] = Solubilization of n−3 PUFAs in aqueous methylated CD solutions; format: physicochemical; settings: aqueous solution of 20% CD vs distilled water
Procedure: Cyclodextrins (CDs) are efficient solubilizers of lipids. […] The solubilizing effect of RAMEA in the case of n−3 PUFAs seems to be high enough for using it as a solubilizer without the risk of interaction with cholesterol-rich lipid rafts in the cell membrane.
as §4

Row | GPR120 receptor expression [2] | Complexation efficiency for ALA [3] | Complexation efficiency for EPA [4] | Complexation efficiency for DHA [5] | Complexation efficiency for Cholesterol [6] | Solubilization of n−3 PUFAs [7] | Compound | Expression of CD1a protein on the surface of moDC [1] | Proportion of inflammatory CD1a+ cells ([1]; PUFA dissolved in DMSO/ethanol) | Solubilization of cholesterol [6]
1 | – | – | – | – | – | – | CC/C=C\C/C=C\C/C=C\CCCCCCCC(=O)O [ALA, α-linoleic acid] | solubilization method did not influence the effects | – | –
2 | induced preferentially by DHA | – | – | – | – | – | CC/C=C\C/C=C\C/C=C\C/C=C\C/C=C\C/C=C\CCC(=O)O [DHA, docosahexaenoic acid] | solubilization method did not influence the effects | more efficient in decreasing the proportion of inflammatory CD1a^+ cells, than ALA or EPA | –
3 | – | 0.25 | 0.21 | 0.10 | <0.001 | solubilized | randomly methylated α-cyclodextrin [RAMEA] | – | – | Neither RAMEA nor RAMEG could solubilize cholesterol to a measurable extent
4 | – | 0.43 | 0.41 | 0.35 | 0.08 | solubilized | randomly methylated β-cyclodextrin [RAMEB] | – | – | cholesterol could be dissolved by RAMEB only
